In the NIST ThermoML archive (doi:10.1016/j.jct.2006.08.009):

Test: mn = molality of the nth substance listed, in mol/kg
Conditions: 350 kPa, Liquid; for apparent molar heat capacity: Extra sensitive DSC

OC[C@@H](O)[C@@H](O)CO [meso-1,2,3,4-butanetetrol] + O
Conditions	apparent molar heat capacity [J/K/mol]	mass density [kg/m3]
318.15 K, m1 = 0.4998	–	1006.84
318.15 K, m1 = 1	–	1021.96
318.15 K, m1 = 2.002	–	1048.89
318.15 K, m1 = 3.003	–	1071.67
323.15 K, m1 = 0.0201	318	–
323.15 K, m1 = 0.05	338	–
323.15 K, m1 = 0.0999	334.4	–
323.15 K, m1 = 0.2501	332.7	–
323.15 K, m1 = 0.4998	331.6	–
323.15 K, m1 = 1	330.1	–
323.15 K, m1 = 2.002	324.5	–
323.15 K, m1 = 3.003	325.24	–
328.15 K, m1 = 0.0201	322	986.49
328.15 K, m1 = 0.05	341	987.47
328.15 K, m1 = 0.0999	337.8	988.94
328.15 K, m1 = 0.2501	336	994.21
328.15 K, m1 = 0.4998	335	1002.15
328.15 K, m1 = 1	333.5	1017.15
328.15 K, m1 = 2.002	328	1043.78
328.15 K, m1 = 3.003	328.66	1066.4
333.15 K, m1 = 0.0201	325	–
333.15 K, m1 = 0.05	344	–
333.15 K, m1 = 0.0999	341	–
333.15 K, m1 = 0.2501	339.2	–
333.15 K, m1 = 0.4998	338.1	–
333.15 K, m1 = 1	336.7	–
333.15 K, m1 = 2.002	331.2	–
333.15 K, m1 = 3.003	331.8	–
338.15 K, m1 = 0.0201	328	981.39
338.15 K, m1 = 0.05	347	982.33
338.15 K, m1 = 0.0999	343.9	983.83
338.15 K, m1 = 0.2501	342	988.99
338.15 K, m1 = 0.4998	340.9	996.87
338.15 K, m1 = 1	339.5	1011.73
338.15 K, m1 = 2.002	334.2	1038.15
338.15 K, m1 = 3.003	334.7	1060.56
343.15 K, m1 = 0.0201	330	–
343.15 K, m1 = 0.05	350	–
343.15 K, m1 = 0.0999	346.4	–
343.15 K, m1 = 0.2501	344.5	–
343.15 K, m1 = 0.4998	343.5	–
343.15 K, m1 = 1	342.1	–
343.15 K, m1 = 2.002	336.9	–
343.15 K, m1 = 3.003	337.33	–
348.15 K, m1 = 0.0201	332	975.69
348.15 K, m1 = 0.05	352	976.65
348.15 K, m1 = 0.0999	348.7	978.12
348.15 K, m1 = 0.2501	346.8	983.23
348.15 K, m1 = 0.4998	345.8	991.14
348.15 K, m1 = 1	344.4	1005.88
348.15 K, m1 = 2.002	339.4	1032.07
348.15 K, m1 = 3.003	339.73	1054.35
353.15 K, m1 = 0.0201	334	–
353.15 K, m1 = 0.05	354	–
353.15 K, m1 = 0.0999	350.7	–
353.15 K, m1 = 0.2501	348.9	–
353.15 K, m1 = 0.4998	347.8	–
353.15 K, m1 = 1	346.5	–
353.15 K, m1 = 2.002	341.77	–
353.15 K, m1 = 3.003	341.88	–
358.15 K, m1 = 0.0201	336	969.51
358.15 K, m1 = 0.05	356	970.13
358.15 K, m1 = 0.0999	352.4	971.92
358.15 K, m1 = 0.2501	350.5	976.99
358.15 K, m1 = 0.4998	349.5	984.82
358.15 K, m1 = 1	348.2	999.52
358.15 K, m1 = 2.002	343.88	1025.52
358.15 K, m1 = 3.003	343.6	1047.59
363.15 K, m1 = 0.0201	337	–
363.15 K, m1 = 0.05	357	–
363.15 K, m1 = 0.0999	353	–
363.15 K, m1 = 0.2501	351.1	–
363.15 K, m1 = 0.4998	350	–
363.15 K, m1 = 1	348.7	–
363.15 K, m1 = 2.002	345.8	–
363.15 K, m1 = 3.003	344.06	–
368.15 K, m1 = 0.0201	–	962.63
368.15 K, m1 = 0.05	–	963.59
368.15 K, m1 = 0.0999	–	965.08
368.15 K, m1 = 0.2501	–	970.07
368.15 K, m1 = 0.4998	–	978.02
368.15 K, m1 = 1	–	992.7
368.15 K, m1 = 2.002	–	1018.73
368.15 K, m1 = 3.003	–	1041.19
